Holding throughout (assay type): cell-based, human
Assay [1] deals with hiPSC-CMs. The assay can be described thus: Motion-derived contractility of day 30 hiPSC-CMs. As to conditions: day 30 hiPSC-CMs vs control. From the text:
These studies illustrate an additional role for S1P/LPA to regulate cell cycle activity in well-differentiated hiPSC-CMs and synergize with β-catenin signaling to increase hiPSC-CM proliferation.

Assay [2] has as its system hiPSC-CMs. The assay can be described thus: Real-time PCR / immunostaining of cardiac gene expression in hiPSC-CMs. As to conditions: CHIR treatment, qPCR. The method, then:
For quantitative analysis of gene expression, RNA was extracted with a lysis buffer (Qiagen) from hiPSC-CMs and stored at −80° C. Total RNA from each sample was purified from cell lysate using a RNA purification kit (Qiagen). cDNA was made using iScript cDNA synthesis kit (BioRad). Quantitative PCR was performed using a 96-well thermocycler system (Biorad) with SYBR Green substrate (Affymetrix) for 40 cycles. All primers sequences were obtained from the PrimerBank (Massachusetts General Hospital/Harvard Medical School) online database. […] Day 12 hiPSC-CMs were cultured in CHIR continuously for 2 months with serial passaging followed by CHIR withdrawal for an additional month.

Assay [3] relates to TCF/LEF. Kind of assay: TOPFlash TCF/LEF luciferase reporter in day 12 hiPSC-CMs. The settings on record: P0 hiPSC-CMs, 24 hours. On the procedure:
Day 12 hiPSC-CMs were transfected for 48h with a TCF reporter plasmid (TOPflash M50, Addgene) or the mutant reporter plasmid (TOPflash M51, Addgene) and the use of Lipofectamine 3000 (Invitrogen). 72h after transfection cells were treated with various small molecules for 24h. Cells were lysed and mixed with luciferase substrate (Promega) and the firefly luciferase expression was measured with a 96-well micro plate reader (Fisher).

Another assay deals with hiPSCs. Kind of assay: hiPSC morphology, cell number and marker expression. As to conditions: 48-hour treatment of hiPSCs, immunostaining and qPCR. From the text: The changes in gene expression was validated after treatment with bioactive lipids or CHIR from the microarray studies with immunostaining and quantitative PCR analysis (FIG. 17D-E).
The test system of assay [4] is hiPSC-CMs. The assay can be described thus: Single cell RNA sequencing of day 12 hiPSC-CMs. The method, then: For the single cell gene expression replated hiPSC-CMs were treated at day 12 with DMSO, CHIR99021 or C59 for 24 hours. At day 13 cells were digested with TrypLE Select Enzyme for about 5 minutes and dissociated with gentle pipetting. […] Single cell analysis was performed with the Loupe Cell Browser software. To investigate the global transcriptional changes of hiPSC-CMs in response to gain and loss of Wnt signaling, single cell RNA sequencing was performed in day 12 hiPSC-CMs treated for 24 hours with either DMSO (CTR), CHIR or C59.

Assay [5] concerns TCF/LEF. The assay can be described thus: TOPFlash TCF/LEF luciferase reporter in hiPSCs. The settings on record: treatment alone, 2 hours. The method, then:
and day 30 hiPSC-CMs were replated in 96-well plates and cultured for 2-3 days before transfection with Lipofectamine (Invitrogen) and TOPFlash (TCF/LEF) luciferase Wnt signaling reporter plasmid (M50, Addgene) at 100 ng/well. After 48 hours, media was changed, and cells were subjected to different treatments for 2 hours before lysis and luciferase (Promega) luminescence was measured with a standard luminescence plate reader. […] It was studied whether S1P/LPA treatment of undifferentiated hiPS cells, either alone or in combination with CHIR, could increase the level of nuclear β-catenin. […] To examine whether the increase in nuclear β-catenin level results in an activation of Wnt signaling at the transcriptional level, hiPSCs were transfected with the previously described TOPFlash luciferase reporter plasmid^23 ([…] et al. 2003). This system provides a proportionate visualization of Wnt transcriptional activity using bioluminescence. Subsequently, the cells were treated with dimethyl sulfoxide (DMSO), CHIR, S1P/LPA, or a combination of S1P/LPA and CHIR. […] When S1P/LPA was combined with CHIR, the TCF/LEF-luciferase activity was further increased to more than 60-fold compared with DMSO control (FIG. 16C).

Assay [6] has as its system hiPSC-CMs. The assay can be described thus: Cell cycle activity in well-differentiated hiPSC-CMs (ki67, pHH3, cell count). On the procedure:
To address this, well-differentiated hiPSC-CMs were generated (e.g. day 30 or later) using chemically-defined protocols (Burridge et al. 2014; Churko et al. 2013; Sharma et al. 2015) (Movie S1) and treated them with S1P/LPA or CHIR or both (FIG. 18A). The presence of S1P/LPA receptors in these cells was first validated (FIG. 21). Immunofluorescence staining was then performed for ki67, a marker of cell cycle activity, and phospho Histone H3 (pHH3), a mitosis marker, in cardiac troponin T (TnT) positive cells.

The subject of assay [7] is TCF/LEF. Kind of assay: TOPFlash TCF/LEF luciferase reporter in day 30 hiPSC-CMs. As to conditions: day 30 cardiomyocytes, 2-hour treatment. On the procedure: […] and day 30 hiPSC-CMs were replated in 96-well plates and cultured for 2-3 days before transfection with Lipofectamine (Invitrogen) and TOPFlash (TCF/LEF) luciferase Wnt signaling reporter plasmid (M50, Addgene) at 100 ng/well. After 48 hours, media was changed, and cells were subjected to different treatments for 2 hours before lysis and luciferase (Promega) luminescence was measured with a standard luminescence plate reader. To determine the mechanism through which S1P/LPA regulate cell cycle activity in hiPSC-CMs, it was evaluated whether S1P and LPA treatment can directly stimulate Wnt/β-catenin signaling in day 30 cardiomyocytes using the TOPFlash (TCF/LEF-luciferase) reporter.

Assay [8] deals with hiPSC-CMs. The assay can be described thus: ki67/pHH3 proliferation and binucleation of hiPSC-CMs (immunofluorescence). The method, then:
Immunohistochemistry was performed with the incubation of primary antibodies overnight followed by 2 hours of incubation with various Alexa fluorescence conjugated secondary antibodies. Images were made with confocal (Zeiss LSM 710) or regular immunofluorescence microscopy (Leica DM IL LED). Primaries used in this study were cardiac troponin T (MS-295, Fisher), Ki67 (ab15580, Abcam), pHH3 (#9701, Cell Signaling), aurora B (ab2254, Abcam), alpha sarcomeric actinin ([…], Sigma-Aldrich), MLC2V (ab48003, Abcam), phospo AKT […] (#9275, Cell Signaling). […] To examine this, the percentage was determined of troponin T (TnT) positive hiPSC-CMs that express the cell cycle marker ki67 or the mitosis marker phospho-histone H3 (pHH3) at each passage after treatment with CHIR or DMSO (CTR) (FIG. 2A-C). […] The short-term (24 hrs) changes were assessed in proliferation rate of day 12 hiPSC-CMs (P0) after treatment with CHIR-, CTR-, or C59, a specific inhibitor of Wnt signaling (FIG. 2I-J).

As to `Cc1c[nH]c(-c2cnc(NCCNc3ccc(C#N)cn3)nc2-c2ccc(Cl)cc2Cl)n1` [CHIR99021], the “beating frequency or contractile force generation” value in the assay on hiPSC-CMs [1] was “no significant difference”. Besides, in the assay on hiPSC-CMs [2], the “Wnt signaling target gene expression (Axin2, LEF, CCND2)” value was “induction of Wnt signaling target gene expression” and the “markers of hiPSC-CM maturation (MYL2, MYH7, MYOM1)” value is “down-regulated”. The “TCF/LEF activity (TOPFlash)” value in the assay with TCF/LEF [3] was “dramatic increase in TCF/LEF activity”. Also, in the assay with hiPSCs, the “Brachyury T (Bry T) expression” value is “increase both VIM and Brachyury T (Bry T) expression”; the VIM expression result was “increase both VIM and Brachyury T (Bry T) expression”. For the same compound, the “cardiac progenitor markers Isl1 and MESP1/2 expression” value in the assay with hiPSC-CMs [4] (24 hours CHIR) was “did not result in increased expression”. Also, in the assay on hiPSC-CMs [4] (24 hours, CHIR vs CTR or C59), the “Wnt signaling target genes and cardiogenic transcription factors expression” value is given as “highly upregulated”; the “mature cardiac genes expression” value is “dramatically downregulated”. Moreover, the “TCF/LEF-luciferase activity, increase vs DMSO control” value with TCF/LEF [5] is recorded as approximately 40 fold. The “number of hiPSC-CMs” value in the assay on hiPSC-CMs [6] (treatment alone, 48 hours) was “increase in cell number”. Moreover, the “number of bi- or multinucleated cardiomyocytes” value with hiPSC-CMs [6] (two-day treatment) is recorded as “did not increase the number of bi- or multinucleated cardiomyocytes”. Also, in the assay with TCF/LEF [7], the “TCF/LEF-luciferase activity (TOPFlash)” value is reported as “activated”. Besides, the “extension of window of proliferation (ki67, pHH3)” value with hiPSC-CMs [8] (CHIR vs CTR at each passage) is given as “up to 5 passages”. Besides, the binucleation result in the assay on hiPSC-CMs [8] (compared with CTR or C59 treated cells) is on record as “less binucleation”. The “ki67 expression / proliferation rate” value in the assay with hiPSC-CMs [8] (day 12 hiPSC-CMs (P0), 24 hrs treatment) is listed as “significant difference in ki67 expression”.

Values taken from patent US12516293B2, “Reagents and methods with Wnt agonists and bioactive lipids for generating and expanding cardiomyocytes” (The Board of Trustees of the Leland Stanford Junior …, priority 2018, dated 2026).
